Here are results for one compound from US20230047816A1 (priority 2018, published 2023).

“Also recorded” adds a separate entry of the source.

The subject of assay [1] is iPSC-derived neural precursor cells (NPC) from CLN7 patients. Kind of assay: Perinuclear mitochondria in iPSC-derived neural precursor cells from CLN7 patients. It counts as cell-based. To be noted: FIG. 16.
The test system of assay [2] is neurons transfected with PFK1-M. In words: Excitotoxic insult in neurons overexpressing PFK1-M. The class given is cell-based, mouse. To be noted: PFK1-M (muscle isoform) overexpression. The method, then:
To address whether the protection caused by PFKFB3 inhibitors was a consequence of hampering the glycolytic activation (FIG. 4B), we aimed to investigate whether the overexpression of the glycolytic enzyme, PFK1-muscle isoform, could revert PFKFB3 inhibitors-mediated neuroprotection. […] Accordingly, neurons were first transfected with the full-length cDNA encoding for PFK1-M, and then subjected to the excitotoxic insult. Cells were transfected with 1.6 μg/mL of a pIRES2-EGFP plasmid vector (Invitrogen) harbouring a full-length cDNA coding for the human muscle 6-phosphofructo-1-kinase muscle isoform (PFK1-M) (accession number, NM_000289.1) using Lipofectamine LTX-PLUS Reagent (Life Technologies) according with manufacturer's protocol. Transfections were performed 24 hours before cells collection. Control cells were transfected with the empty vector. Cells were treated with excitotoxic stimuli as described above.

Assay [3] deals with MCAO model of brain ischemia. Kind of assay: MCAO model of brain ischemia, rota-rod test. The class given is in vivo, C57BL/6-J mice. The following applies: 60 mg/kg bolus via jugular vein after reperfusion; 30 mins occlusion; test 24 hours after MCAO. How it is done:
For the MCAO model of brain ischemia, 10 weeks-old male C57BL/6-J mice were used (n=8 animals per condition) following a published protocol (1,2). Mice were anesthetized with 4% (vol/vol) Sevoflurane in a mixture of ⅓ O2 and ⅔ N2O using a vaporizer. After the induction of anesthesia, Sevoflurane was reduced to 3% (vol/vol). The body temperature was maintained at 36.5° C. during the surgery. A laser-Doppler flow probe attached to a flowmeter was located over the thinned skull in the MCAO area (4 mm lateral to bregma) to monitor the relative cerebral brain flow during the experiment. Under operating microscope, the common, external and internal carotid arteries were dissected from connective tissue through a midline neck incision. The common carotid artery (CCA) was carefully dissected from the surrounding nerves with caution to avoid harming of the vagal nerve. A suture monofilament was introduced from the lumen of the external carotid artery (ECA) into the internal carotid artery (ICA) to a distance of 9-10 mm beyond the CCA bifurcation, in order to occlude the origin of middle cerebral artery (MCA). The filament was removed 30 mins after occlusion. AZ67 or compound 1 (60 mg/kg of body weight) or vehicle were administered in a bolus (200 μl) via the jugular vein immediately after reperfusion. […] The latency to fall was determined and expressed in seconds.
For orientation: The rotarod test checks motor coordination on a turning rod.

In another assay the test system is Cln7Δex2 mice. In words: AZ67 in vivo administration in Batten disease model. The following applies: 1 nmol/mouse intracerebroventricularly every 24 h, two months. How it is done: AZ67 for in vivo usage was dissolved in 20% (wt/vol) PEG200 in PBS to a 20 mM concentration. 4 groups were generated (4-6 animals/group), namely: WT-vehicle, CLN7Δex2-vehicle, WT-AZ67, CLN7Δex2-AZ67. The canula was inserted intracerebroventricularly at the age of 8 weeks and, after at least of 15 days of recovery, we injected the AZ67 at the dose identified previously (l nmol/mouse) every 24 h. The duration of the experiment was determined by the presence of hindlimb clasping the CLN7Δex2-control (vehicle), being this time two months. After this, the animals were perfused, and their brains dissected to be investigated by immunofluorescence and electron microscopy (EM).
Mice (5 months for AZ67 intraventricular injections; 3 months for mCAT expression approach) were anaesthetized by intraperitoneal injection of a mixture of xylazine hydrochloride (Rompun; Bayer) and ketamine hydrochloride/chlorbutol (Imalgene; Merial) (1:4) at 1 ml per kg body weight and then perfused intra-aortically with 0.9% NaCl followed by 5 ml p/g body weight of Somogyi (4% (wt/vol) paraformaldehyde, and 0.2% (vol/vol) picric acid, in 0.1 M PB; pH 7.4). After perfusion, brains were dissected out sagitally in two parts and post-fixed with Somogyi for 2 h at room temperature. Brain blocks were rinsed successively for 10 min, 30 min and 2 h with 0.1 M PB solution and cryoprotected in 10%, 20% and 30% (wt/vol) sucrose in PB sequentially, until they sank. After cryoprotection, 40-m-thick sagittal sections were obtained with a freezing-sliding cryostat (Leica). Sectioning of WT and Cln7Δex2 brains were performed under the same conditions and sessions. The sections were collected serially in a 12-well plate in 0.1 M PB, rinsed three times for 10 min in 0.1 M PB and used for subsequent immunohistochemistry and lipofuscin observation. The section-containing wells that were not used were kept in freezer mix (30% (vol/vol) polyethylene glycol, 30% (vol/vol) glycerol in 0.1 M PB) at −20° C. […]
Sections were examined with epifluorescence and the appropriate filter sets under an Operetta CLS high-content imaging system (PerkinElmer). […] Images were analysed with the Harmony software with PhenoLOGIC (PerkinElmer). Interest brain areas (cortex, hippocampus and cerebellum) were selected and subsequently quantified as mean intensity per area by using the ‘measure rectangle’ function, which represents the mean intensity of a channel per selected area.

For `Cc1noc(C)c1Cn1cc(C#N)c2cc(Oc3ccc(NC(=O)[C@@H]4CCCN4)cc3)ccc21` [AZ67, (2S)-N-[4-({3-cyano-1-[(3,5-dimethyl-1,2-oxazol-4-yl)methyl]-1H-indol-5-yl}oxy)phenyl]pyrrolidine-2-carboxamide], the “loss of perinuclear mitochondria” value in assay [1] is reported as “rectified the loss of perinuclear mitochondria”. In addition, the “neuroprotection under PFK1-M overexpression” value in assay [2] was “abolish the neuroprotection; also recorded: abrogates the neuroprotective effect”. Moreover, in assay [3], the “improvement in rota-rod test performance (latency to fall)” value is around 50%. In addition, in the assay with Cln7Δex2 mice, the “accumulation of SCMAS in the cortex” value is on record as “prevented”, the “accumulation of lipofuscin in the cortex” value was “prevented”, the “accumulation of reactive astroglia in the cortex” value was “prevented” and the hindlimb paralysis result is “prevented”.
